Measured values published in patent US20250145585A1, “HETEROCYCLIC INHIBITORS OF IGF-1R FOR TREATMENT OF DISEASE” (HORIZON THERAPEUTICS IRELAND DAC, priority 2023, published 2025).
Structures can show the parent of a compound that is named as a salt.

Each compound was assayed against T1, IGF-1R (Homo sapiens, UniProt P08069) (assay: Example B-2: IGF-1R Assay (PathHunter cell lines, EC80 agonist challenge, chemiluminescent detection)). Conditions: PathHunter cells, compound 60 minutes at 37° C., EC80 agonist 3 hours; read-out: IC50, Biological Activity against IGF-1R (Table B2).
T1 construct: expressed in transfected cells
Format: cell-based
Procedure: PathHunter cell lines were expanded from freezer stocks according to standard procedures. Cells were seeded in a total volume of 20 μL into white walled, 384-well microplates and incubated for the appropriate time prior to testing.
Cells are pre-incubated with compound followed by EC80 agonist challenge as follows: • R. 1. Intermediate dilution of sample stocks was performed to generate 5× sample in assay buffer. • 2. 5 μL of 5× sample was added to cells and incubated at 37° C. for 60 minutes. Vehicle concentration was 1%. • 3. 5 IL of 6× EC80 agonist in assay buffer was added to the cells and incubated at room temperature for 3 hours.
Assay signal was generated through a single addition of 12.5 or 15 μL (50% v/v) of PathHunter Detection reagent cocktail for agonist and antagonist assays respectively, followed by a one hour incubation at room temperature. Microplates were read following signal generation with a PerkinElmer Envision™ instrument for chemilumine-scent signal detection.
Compound activity was analyzed using CBIS data analysis suite (ChemInnovation, CA). Percentage inhibition was calculated using the following formula: % Inhibition=100%×(1−(mean RLU of test sample−mean RLU of vehicle control)/(mean RLU of EC80 control−mean RLU of vehicle control)). The activity for representative examples of the invention is shown in the following table, wherein A: IC50≤500 nM; B: 500 nM<IC50≤2 μM; C: 2 μM<IC50≤10 μM; D: IC50>10 μM.

T1 sequence (P08069 31-1367): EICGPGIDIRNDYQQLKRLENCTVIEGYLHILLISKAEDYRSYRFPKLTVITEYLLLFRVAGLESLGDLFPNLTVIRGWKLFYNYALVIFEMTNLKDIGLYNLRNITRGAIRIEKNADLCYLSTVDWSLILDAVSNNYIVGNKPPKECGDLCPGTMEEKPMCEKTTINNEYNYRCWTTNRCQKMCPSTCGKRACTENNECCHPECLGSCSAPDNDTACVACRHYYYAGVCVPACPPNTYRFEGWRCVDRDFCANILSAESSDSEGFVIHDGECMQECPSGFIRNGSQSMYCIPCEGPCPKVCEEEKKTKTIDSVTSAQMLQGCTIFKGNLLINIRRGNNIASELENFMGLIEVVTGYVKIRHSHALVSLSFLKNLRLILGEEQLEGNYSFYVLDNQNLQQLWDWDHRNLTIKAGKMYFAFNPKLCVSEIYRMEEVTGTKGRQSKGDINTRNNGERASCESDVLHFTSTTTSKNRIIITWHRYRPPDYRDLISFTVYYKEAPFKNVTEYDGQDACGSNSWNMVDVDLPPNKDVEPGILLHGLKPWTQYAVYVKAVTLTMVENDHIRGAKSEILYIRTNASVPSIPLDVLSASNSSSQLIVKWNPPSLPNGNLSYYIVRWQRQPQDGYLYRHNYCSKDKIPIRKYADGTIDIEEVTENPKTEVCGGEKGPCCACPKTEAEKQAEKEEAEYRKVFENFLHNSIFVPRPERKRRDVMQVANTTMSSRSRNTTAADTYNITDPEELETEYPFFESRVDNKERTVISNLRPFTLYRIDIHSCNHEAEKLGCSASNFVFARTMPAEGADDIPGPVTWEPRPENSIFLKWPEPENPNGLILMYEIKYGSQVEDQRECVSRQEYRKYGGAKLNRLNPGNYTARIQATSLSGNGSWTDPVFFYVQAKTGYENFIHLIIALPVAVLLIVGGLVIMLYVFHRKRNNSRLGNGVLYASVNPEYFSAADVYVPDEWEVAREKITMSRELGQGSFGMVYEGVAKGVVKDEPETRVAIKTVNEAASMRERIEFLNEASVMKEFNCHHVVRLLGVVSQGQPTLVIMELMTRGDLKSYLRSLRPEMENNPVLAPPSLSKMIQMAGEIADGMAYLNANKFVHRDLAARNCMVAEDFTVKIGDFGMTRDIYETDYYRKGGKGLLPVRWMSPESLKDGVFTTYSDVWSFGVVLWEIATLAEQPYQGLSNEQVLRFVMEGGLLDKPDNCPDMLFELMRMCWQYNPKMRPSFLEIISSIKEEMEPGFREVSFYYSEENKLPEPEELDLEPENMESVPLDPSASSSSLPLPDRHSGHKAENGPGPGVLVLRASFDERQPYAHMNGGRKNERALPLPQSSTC

Structure (SMILES) | IC50
C[C@H]1COc2c(CN3C(=O)N(c4ccc(C5(C(F)(F)F)CC5)cc4)C(=O)C3(C)C)ccnc2N1 [Compound 26, (S)-5,5-dimethyl-1-((3-methyl-3,4-dihydro-2H-pyrido[3,2-b][1,4]oxazin-8-yl)methyl)-3-(4-(1-(trifluoromethyl)cyclopropyl)phenyl) imidazolidine-2,4-dione] | ≤ 500 nM
C[C@H]1CNc2nccc(CN3C(=O)N(c4ccc(C5(C(F)(F)F)CC5)cc4)C(=O)C3(C)C)c2O1 [Compound 28, (S)-5,5-dimethyl-1-((2-methyl-3,4-dihydro-2H-pyrido[3,2-b][1,4]oxazin-8-yl)methyl)-3-(4-(1-(trifluoromethyl)cyclopropyl)phenyl) imidazolidine-2,4-dione] | ≤ 500 nM
CC1(C)C(=O)N(c2ccc(C3(C(F)(F)F)CC3)cc2)C(=O)N1Cc1ccnc2c1CCN2 [Compound 33, 1-((2,3-dihydro-1H-pyrrolo[2,3-b]pyridin-4-yl)methyl)-5,5-dimethyl-3-(4-(1-(trifluoromethyl)cyclopropyl)phenyl) imidazolidine-2,4-dione] | ≤ 500 nM
CC1(C)CN(S(C)(=O)=O)c2cc(N3C(=O)N(Cc4ccnc5c4CC(=O)N5)C(C)(C)C3=O)ccc21 [Compound 37, 3-(3,3-dimethyl-1-(methylsulfonyl)indolin-6-yl)-5,5-dimethyl-1-((2-oxo-2,3-dihydro-1H-pyrrolo[2,3-b]pyridin-4-yl)methyl)imidazolidine-2,4-dione] | ≤ 500 nM
CC1(C)C(=O)N(c2ccc(C3(C(F)(F)F)CC3)cc2)C(=O)N1Cc1ccnc2c1CCC(=O)N2 [Compound 38, 5,5-dimethyl-1-((7-oxo-5,6,7,8-tetrahydro-1,8-naphthyridin-4-yl)methyl)-3-(4-(1-(trifluoromethyl)cyclopropyl)phenyl) imidazolidine-2,4-dione] | ≤ 500 nM
CC1(C)C(=O)N(c2ccc(C3(C#N)CCC3)cc2)C(=O)N1Cc1ccnc2c1CC(=O)N2 [Compound 40, (1-(4-(4,4-dimethyl-2.5-dioxo-3-((2-oxo-2,3-dihydro-1H-pyrrolo[2,3-b]pyridin-4-yl)methyl)imidazolidin-1-yl)phenyl)cyclobutane-1-carbonitrile)] | ≤ 500 nM
Cn1nc(C(C)(C)C)cc1N1C(=O)N(Cc2ccnc3[nH]ccc23)C(C)(C)C1=O [Compound 42, 1-((1H-pyrrolo[2,3-b]pyridin-4-yl)methyl)-3-(3-(tert-butyl)-1-methyl-1H-pyrazol-5-yl)-5,5-dimethylimidazolidine-2,4-dione] | > 10000 nM
CC1(C)C(=O)N(c2ccc3c(c2)N(S(C)(=O)=O)CC32CCC2)C(=O)N1Cc1ccnc2c1CC(=O)N2 [Compound 43, 5,5-dimethyl-3-(1′-(methylsulfonyl)spiro[cyclobutane-1,3′-indolin]-6′-yl)-1-((2-oxo-2,3-dihydro-1H-pyrrolo[2,3-b]pyridin-4-yl)methyl)imidazolidine-2,4-dione] | ≤ 500 nM
CC1(C)C(=O)N(c2ccc(C3(C(F)(F)F)CC3)cc2)C(=O)N1Cc1ccnc2c1CS(=O)(=O)N2 [Compound 44, 1-((2,2-dioxido-1,3-dihydroisothiazolo[3,4-b]pyridin-4-yl)methyl)-5,5-dimethyl-3-(4-(1-(trifluoromethyl)cyclopropyl)phenyl) imidazolidine-2,4-dione] | > 10000 nM
CC1(C)C(=O)N(c2ccc3c(c2)N(S(C)(=O)=O)CC32CC2)C(=O)N1Cc1ccnc2c1CC(=O)N2 [Compound 45, 5,5-dimethyl-3-(1′-(methylsulfonyl)spiro[cyclopropane-1,3′-indolin]-6′-yl)-1-((2-oxo-2,3-dihydro-1H-pyrrolo[2,3-b]pyridin-4-yl)methyl)imidazolidine-2,4-dione] | ≤ 500 nM

Results, then the compound that gave them:

IC50 | Structure (SMILES)
≤ 500 nM | C[C@@H]1CNc2nccc(CN3C(=O)N(c4ccc(C5(C(F)(F)F)CC5)cc4)C(=O)C3(C)C)c2O1 [Compound 27, (R)-5,5-dimethyl-1-((2-methyl-3,4-dihydro-2H-pyrido[3,2-b][1,4]oxazin-8-yl)methyl)-3-(4-(1-(trifluoromethyl)cyclopropyl)phenyl) imidazolidine-2,4-dione]
≤ 500 nM | CC(C)(C#N)c1ccc(N2C(=O)N(Cc3ccnc4c3CC(=O)N4)C(C)(C)C2=O)cc1 [Compound 29, 2-(4-(4,4-dimethyl-2,5-dioxo-3-((2-oxo-2,3-dihydro-1H-pyrrolo[2,3-b]pyridin-4-yl)methyl)imidazolidin-1-yl)phenyl)-2-methylpropanenitrile]
≤ 500 nM | CC1(C)C(=O)N(c2ccc(C3(C(F)(F)F)CCC3)cc2)C(=O)N1Cc1ccnc2c1CC(=O)N2 [Compound 30, 5,5-dimethyl-1-((2-oxo-2,3-dihydro-1H-pyrrolo[2,3-b]pyridin-4-yl)methyl)-3-(4-(1-(trifluoromethyl)cyclobutyl)phenyl)imidazolidine-2,4-dione hydrochloride]
≤ 500 nM | CC1C(=O)Nc2nccc(CN3C(=O)N(c4ccc(C5(C(F)(F)F)CC5)cc4)C(=O)C3(C)C)c21 (centres unmarked) [Compound 31, 5,5-dimethyl-1-((3-methyl-2-oxo-2,3-dihydro-1H-pyrrolo[2,3-b]pyridin-4-yl)methyl)-3-(4-(1-(trifluoromethyl)cyclopropyl)phenyl) imidazolidine-2,4-dione]
≤ 500 nM | CC1(C)C(=O)N(c2ccc(C34CC(C3)C4)cc2)C(=O)N1Cc1ccnc2c1CC(=O)N2 [Compound 32, 3-(4-(bicyclo[1.1.1]pentan-1-yl)phenyl)-5,5-dimethyl-1-((2-oxo-2,3-dihydro-1H-pyrrolo[2,3-b]pyridin-4-yl)methyl)imidazolidine-2,4-dione]
≤ 500 nM | CC1Cc2c(CN3C(=O)N(c4ccc(C5(C(F)(F)F)CC5)cc4)C(=O)C3(C)C)ccnc2N1 (centres unmarked) [Compound 34, 5,5-dimethyl-1-((2-methyl-2,3-dihydro-1H-pyrrolo[2,3-b]pyridin-4-yl)methyl)-3-(4-(1-(trifluoromethyl)cyclopropyl)phenyl) imidazolidine-2,4-dione]
≤ 500 nM | CC1(C)COc2cc(N3C(=O)N(Cc4ccnc5c4CC(=O)N5)C(C)(C)C3=O)ccc21 [Compound 35, 3-(3,3-dimethyl-2,3-dihydrobenzofuran-6-yl)-5,5-dimethyl-1-((2-oxo-2,3-dihydro-1H-pyrrolo[2,3-b]pyridin-4-yl)methyl)imidazolidine-2,4-dione]
≤ 500 nM | CC(C)(C)c1ccc(N2C(=O)N(Cc3ccnc4c3CC(=O)N4)C(C)(C)C2=O)cc1 [Compound 36, 3-(4-(tert-butyl)phenyl)-5,5-dimethyl-1-((2-oxo-2,3-dihydro-1H-pyrrolo[2,3-b]pyridin-4-yl)methyl)imidazolidine-2,4-dione]
≤ 500 nM | CC1(C)CN(C(=O)C2CC2)c2cc(N3C(=O)N(Cc4ccnc5c4CC(=O)N5)C(C)(C)C3=O)ccc21 [Compound 39, 3-(1-(cyclopropanecarbonyl)-3,3-dimethylindolin-6-yl)-5,5-dimethyl-1-((2-oxo-2,3-dihydro-1H-pyrrolo[2,3-b]pyridin-4-yl)methyl)imidazolidine-2,4-dione]
≤ 500 nM | CC(C)(Br)Cc1cn(S(C)(=O)=O)c2cc(N3C(=O)N(Cc4ccnc5c4CC(=O)N5)C(C)(C)C3=O)ccc12 [Compound 41, 3-(3-(2-bromo-2-methylpropyl)-1-(methylsulfonyl)-1H-indol-6-yl)-5,5-dimethyl-1-((2-oxo-2,3-dihydro-1H-pyrrolo[2,3-b]pyridin-4-yl)methyl)imidazolidine-2,4-dione]
